The record followed here is PMC10298626 (International Journal of Molecular Sciences, 2023).

For data set [1], the system named is iNOS mRNA. The data set is described as follows: iNOS mRNA expression (qRT-PCR) in LPS-stimulated RAW264.7 cells. Type of data set: cell-based, Mouse. The conditions noted are these: 20, 40, and 80 μM; 2 h pretreatment, LPS 500 ng/mL 6 h. The procedure: RAW264.7 cells were seeded into a 6-well plate (2 × 10^6 cells/well) and cultured for 24 h. The cells were treated with coumarin derivative 2 at 20, 40, and 80 μM and cultured for 2 h and with LPS (500 ng/mL) for 6 h.
The cells were washed with phosphate-buffered saline (PBS) and lysed with the RNeasy Mini kit (Qiagen, Hilden, Germany) for RNA isolation. RNA was converted to cDNA using the AccuPower reverse transcriptase Premix Kit (Bioneer, Daejeon, Republic of Korea). A Power SYBR Green PCR Master Mix (Applied Biosystems, Waltham, MN, USA) was used to perform polymerase chain reaction amplification. Amplification conditions were selected within the Quant 3 PCR system (Applied Biosystems). The data were normalized to the amount of glyceraldehyde 3-phosphate dehydrogenase.
Figure 4 Effect of coumarin derivative 2 on iNOS protein expression in LPS-stimulated RAW264.7 cells. (a) RAW264.7 cells (2.0 × 10^6 cells/6 cm dish) were pretreated with coumarin derivative 2 (20, 40, and 80 μM) for 2 h and incubated with LPS (500 ng/mL) for 20 h. Whole-cell lysates were then immunoblotted with the iNOS specific antibody. […] (c) RAW264.7 cells (2.0 × 10^6 cells/6 cm dish) were pretreated with coumarin derivative 2 (20, 40, and 80 μM) for 2 h and incubated with LPS (500 ng/mL) for 6 h. iNOS mRNA expression levels were measured via a real-time quantitative reverse transcription polymerase chain reaction. […]

Data set [2] is described as follows: in vitro. The data set is classed as cell-based. The conditions noted are these: mouse, RAW264.7 cells, then LPS (500 ng/mL) 20 h, read-out: Cell viability, Average (%). Here is the method: To investigate the anti-inflammatory activity of coumarin derivatives, cell viability was analyzed by treating RAW264.7 cells with 23 types of coumarin derivatives at concentrations of 20, 40, and 80 μM for 2 h and with LPS for 20 h.
Mouse macrophage RAW264.7 cells were purchased from the Korea Cell Line Bank (Seoul, Republic of Korea) and cultured in Dulbecco’s Modified Eagle Medium (Corning, NY, USA) containing 10% fetal bovine serum and 1% penicillin/streptomycin at 37 °C and 5% CO2. The medium was changed every 2 days and subcultured when the cells grew > 80%.
EZ-Cytox cell viability assay kit (Dogen, Suwon, Republic of Korea) was used to measure cell viability according to the manufacturer’s instructions. RAW264.7 cells were seeded into a 96-well plate (1 × 10^5 cells/well) and treated with coumarin derivatives at concentrations of 20, 40, and 80 μM. After 2 h, the cells were treated with LPS (500 ng/mL) and cultured for 24 h in a 37 °C, 5% CO2 incubator. The culture supernatant was treated with 10% EZ-Cytox reagent, and a microplate reader was used to measure the absorbance at 450 nm.

Data set [3] concerns TNF-α. The data set is described as follows: TNF-α production (ELISA) in LPS-stimulated RAW264.7 cells. Type of data set: cell-based, Mouse. Conditions: 20, 40, and 80 μM; 2 h pretreatment, LPS 500 ng/mL 20 h; concentration-dependent. The procedure:
(§1) Macrophages stimulated by pathogens and cytokines are activated and play an important role in regulating the immune response, inflammatory response, and metabolism. LPS-activated RAW264.7 cells were treated with 20, 40, or 80 μM of coumarin derivative 2 and cultured for 24 h, and the levels of TNF-α and IL-6 in the culture medium were analyzed.
(§2) RAW264.7 cells were seeded into 96-well plates and cultured for 24 h. After 2 h of treatment with 20, 40, or 80 μM of coumarin compound derivative 2, the cells were incubated with LPS (500 ng/mL) for 20 h. ELISA kits (R & D Systems, Minneapolis, MN, USA) were used to collect and analyze the cell supernatants for TNF-α and IL-6.
(§3) Figure 3 Effects of coumarin derivative 2 on IL-6 and TNF-α production and mRNA expression in LPS-stimulated RAW264.7 cells. (a) Effect of coumarin derivative 2 on TNF-α and IL-6 production in RAW264.7 cells. The RAW264.7 cells (1 × 10^5/well, 96-well plates) were pretreated with coumarin derivative 2 (20, 40, and 80 μM) for 2 h and incubated with LPS (500 ng/mL) for 20 h. An ELISA kit was used to analyze cell supernatants for TNF-α and IL-6. (b) Effect of coumarin derivative 2 on mRNA expression of IL-6 and TNF-α in RAW264.7 cells. […] IL-6 and TNF-α mRNA expression levels were measured via a real-time quantitative reverse transcription polymerase chain reaction.
(In an ELISA, binding on a coated surface is turned into a signal by an enzyme label.)

Data set [4] relates to IL-6. The data set is described as follows: IL-6 production (ELISA) in LPS-stimulated RAW264.7 cells. The data set is classed as cell-based, Mouse. The conditions noted are these: 20, 40, and 80 μM; 2 h pretreatment, LPS 500 ng/mL 20 h; concentration-dependent. The procedure:
as §1, §2, §3

In general, viability refers to a read-out of living cells in per cent, often relative to untreated cells. Turning to `N#CC1=C(N)Oc2c(c(=O)oc3ccccc23)C1c1cccc(F)c1` (stereo not drawn) [Coumarin derivative 2], the “iNOS mRNA expression” value in data set [1] is reported as “significantly suppressed”. Moreover, the viability at 22 h, 20 μM in data set [2] (20 μM for 2 h) was determined as 106%. The viability at 22 h, 40 μM in data set [2] (40 μM for 2 h) was determined as 97.1%. Further, the viability at 22 h, 80 μM in data set [2] (80 μM for 2 h) is 101%. The “LPS-induced TNF-α level” value in data set [3] is “significantly reduced”. Also, the “LPS-induced IL-6 level” value in data set [4] was “significantly reduced”.
